Measurements as given in EP4775571A1, “LPAR1 ANTAGONIST AND USE THEREOF” (Haisco Pharmaceutical Group Co., Ltd., priority 2023, dated 2025).
One block for each compound: values may come before it.

Tests used:
[1] = biological target: T1, LPAR1 (Homo sapiens, UniProt Q92633); assay: Cell calcium flux assay (antagonist mode, LPA at EC80, FLIPR); assay type: cell-based; details: CHO-LPA1 cells, calcium flux, grades; read-out: LPAR1 IC50
T1 construct: expressed in transfected cells; host or cells: CHO (CHO-LPA1 cells)
T1 sequence (Q92633 whole entry): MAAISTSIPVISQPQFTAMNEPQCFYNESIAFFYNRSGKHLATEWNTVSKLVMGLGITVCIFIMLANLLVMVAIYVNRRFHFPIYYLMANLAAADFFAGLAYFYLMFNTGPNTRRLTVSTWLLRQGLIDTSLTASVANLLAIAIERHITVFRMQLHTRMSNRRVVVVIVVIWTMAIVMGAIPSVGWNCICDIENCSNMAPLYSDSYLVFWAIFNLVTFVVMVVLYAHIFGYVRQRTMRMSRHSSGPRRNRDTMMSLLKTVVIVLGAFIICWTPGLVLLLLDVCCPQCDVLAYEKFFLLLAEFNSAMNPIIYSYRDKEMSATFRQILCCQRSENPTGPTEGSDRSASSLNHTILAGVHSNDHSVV
Protocol: • 1) The test compound was diluted to a 400X stock solution with DMSO in a 384-well plate. • 2) 1 µl of compound solution from step 1 was transferred into 39 ul of assay buffer to prepare a 10X working solution in a 384-well plate using a Bravo automated liquid handling platform. • 3) CHO-LPA1 cells were cultured in F12 medium (10% FBS). • 4) When cells reached 80% confluence, the cells were dissociated using 0.25% trypsin-EDTA. • 5) Cell density was determined and the cells were diluted to 4x10e5/ml using F12 (10% FBS). • 6) 30 µl of the cell suspension was dispensed into a 384-well plate (corning 3764#) using a multidrop automated dispenser, resulting in 12,000 cells per well. The plate was incubated at 37°C with 5% CO2 for 18-20 hours. • 7) The medium was replaced with 25 uL of serum-free medium and incubated overnight. • 8) 10 ul of 3.5X loading dye was added to each well of the cell plate. The plate was incubated in the dark at 37°C with 5% CO2 for 0.5-1 hours. • 9) After incubation, 5 µl of the 10X working solution from step 2 was transferred to the cell plate. • 10) The cell plate was incubated in the dark at 25°C for 15 minutes, and then the calcium signals were read. • 11) A 5X agonist (LPA) working solution in 1X HBSS+20 mM HEPES+0.1% BSA was prepared in a 384-well assay plate (greiner 784075#), with at least 20 µl per well. The agonist concentration used in this assay was determined based on the dose-response curve from a prior agonist mode experiment, with the EC80 value serving as the final agonist concentration. • 12) Data were read and saved using FLIPR at room temperature with the specified settings. • 13) The signal values were plotted against compound concentrations, and the curve fitting was performed and the IC50 values were calculated using nonlinear regression analysis in GraphPad Prism software.
IC50 values are represented by grades A, B, C, and D, where A represents 0 < IC50 ≤ 10 nM, B represents 10 nM < IC50 ≤ 50 nM, C represents 50 nM < IC50 ≤ 100 nM, and D represents IC50 > 100 nM. Table 1 Antagonistic activity of the compounds of the present invention against LPAR1

[2] = Pharmacokinetic test in rats; assay type: in vivo, SD rats; details: for Vd: read-out: Vdss
Protocol: 3.1. Experimental animals: Male SD rats, about 220 g, 6-8 weeks old, 6 rats/compound, purchased from Chengdu Ddossy Experimental Animals Co., Ltd.
3.2. Experimental design: On the day of the experiment, the SD rats were randomly grouped according to their body weights. The animals were fasted with water available for 12-14 h one day before the administration, and were fed 4 h after the administration. Table 4. Administration information
(§1) Before and after administration, 0.15 mL of blood was taken from the orbit under isoflurane anaesthesia and placed in an EDTAK2 centrifuge tube. The tube was centrifuged at 5000 rpm at 4°C for 10 min, and plasma was collected. Before analysis and detection, all samples were stored at -80°C, and the samples were quantitatively analysed by LC-MS/MS. Table 5. Pharmacokinetic parameters of test compound in plasma of rats

[3] = Pharmacokinetic test in mice; assay type: in vivo, C57 mice
Protocol: 2.1 Experimental animals: Male C57 mice, 20-25 g, 6 mice/compound, purchased from Chengdu Ddossy Experimental Animals Co., Ltd.
2.2 Experimental design: On the day of the experiment, the C57 mice were randomly grouped according to their body weights. The animals were fasted with water available for 12-14 h one day before the administration, and were fed 4 h after the administration. Table 2. Administration information
as §1, with “0.06” for “0.15”, “collected. The blood collection time points for the intravenous administration group and oral gavage administration group were: 0 min, 5 min, 15 min, 30 min, 1 h, 2 h, 4 h, 6 h, 8 h, and 24 h.” for “collected.”, “3.” for “5.”, “compounds” for “compound”, “mice” for “rats”

[4] = rat, iv, rats, i.v. (1 mg/kg), plasma
[5] = rat, po, rats, i.g. (3 mg/kg), plasma
[6] = mouse, iv, mice, i.v. (1 mg/kg), plasma

Compound: C=C1CC(N(C)C(=O)OCc2c(-c3ccc(N[C@H]4CCC[C@H](C(=O)O)C4)c(C)n3)nnn2C)C1 [Compound 21]
IC50 [1]: < 10 nM

IC50 [1]: < 10 nM
Compound: Cc1nc(-c2nnn(C)c2CNC(=O)OCC2CC(=C(F)F)C2)ccc1O[C@H]1CCC[C@H](C(=O)O)C1 (stereo partly shown) [Compound 23]

Compound: C=C1C[C@H](Oc2ccc(-c3nnn(C)c3COC(=O)N(C)CCC)nc2C)C[C@@H](C(=O)O)C1 [Compound 24]
IC50 [1]: < 10 nM

Compound: C=C1CC(N(C)C(=O)OCc2c(-c3ccc(OCC4C(C(=O)O)C4(F)F)c(C)n3)nnn2C)C1 (stereo not shown) [Compound 25]
IC50 [1]: < 10 nM

Compound: Cc1nc(-c2nnn(C)c2COC(=O)N(C)CCOC(F)F)ccc1O[C@H]1CCC[C@H](C(=O)O)C1 [Compound 27]
IC50 [1]: < 10 nM

IC50 [1]: < 10 nM
Compound: Cc1nc(-c2nnn(C)c2COC(=O)N(C)CCSC(F)(F)F)ccc1O[C@H]1CCC[C@H](C(=O)O)C1 [Compound 28]

Compound: C=C1CC(N(C)C(=O)OCc2c(-c3ccc(OCC(C)(C)CC(=O)O)c(C)n3)nnn2C)C1 [Compound 29]
IC50 [1]: < 10 nM | pharmacokinetic characteristics in rats ([2]; conclusion in words): good pharmacokinetic characteristics | AUC(0-t) [2, 4]: 1090 ± 208 ng·h/mL | clearance [2, 4]: 15 ± 2.7 mL/min/kg | Vd [2, 4]: 3.53 ± 1.6 L/kg | AUC(0-t) [2, 5]: 2540 ± 679 ng·h/mL | C0 or Cmax ([2]; rats, i.g. (3 mg/kg), plasma): 739 ± 29 ng/mL | C0 or Cmax ([2]; rats, i.v. (1 mg/kg), plasma): 2324 ± 170 ng/mL

IC50 [1]: < 10 nM
Compound: Cc1nc(-c2nnn(C)c2COC(=O)N(C)[C@H]2C[C@@H](OC(F)(F)F)C2)ccc1O[C@H]1CCC[C@H](C(=O)O)C1 [Compound 30]

IC50 [1]: < 10 nM
Compound: Cc1nc(-c2nnn(C)c2COC(=O)N(C)[C@H]2C[C@H](OC(F)(F)F)C2)ccc1O[C@H]1CCC[C@H](C(=O)O)C1 [Compound 31]

IC50 [1]: < 10 nM
Compound: C=C1CC(N(C)C(=O)OCc2c(-c3ccc(OCC4(CC(=O)O)CC4)c(C)n3)nnn2C)C1 [Compound 36]

IC50 [1]: < 10 nM
Compound: CCCN(C)C(=O)OCc1c(-c2ccc(O[C@H]3CC(=C(F)F)C[C@H](C(=O)O)C3)c(C)n2)nnn1C [Compound 38]

IC50 [1]: < 10 nM
Compound: Cc1nc(-c2nnn(C)c2COC(=O)N(C)[C@H]2C[C@@H](OC(F)F)C2)ccc1O[C@H]1CCC[C@H](C(=O)O)C1 [Compound 39]

IC50 [1]: < 10 nM
Compound: Cc1nc(-c2nnn(C)c2COC(=O)N(C)[C@H]2C[C@H](OC(F)F)C2)ccc1O[C@H]1CCC[C@H](C(=O)O)C1 [Compound 40]

IC50 [1]: < 10 nM
Compound: Cc1nc(-c2nnn(C)c2CNC(=O)O[C@H]2C[C@@H](OC(F)(F)F)C2)ccc1O[C@H]1CCC[C@H](C(=O)O)C1 [Compound 41]

IC50 [1]: < 10 nM
Compound: Cc1nc(-c2nnn(C)c2CNC(=O)O[C@H]2C[C@H](OC(F)(F)F)C2)ccc1O[C@H]1CCC[C@H](C(=O)O)C1 [Compound 42]

Compound: Cc1nc(-c2nnn(C)c2CNC(=O)OC2CC(=C(F)F)C2)ccc1OCCC1(C(=O)O)CC1 (stereo not shown) [Compound 47]
pharmacokinetic characteristics in mice ([3]; conclusion in words): excellent pharmacokinetic characteristics | C0 or Cmax ([3]; mice, i.g. (3 mg/kg), plasma): 566 ± 122 ng/mL | C0 or Cmax ([3]; mice, i.v. (1 mg/kg), plasma): 1361 ± 179 ng/mL | AUC(0-t) [3, 6]: 1000 ± 333 ng·h/mL | clearance [3, 6]: 16.8 ± 5.7 mL/min/kg | Vd ([3]; mouse, iv, mice, i.v. (1 mg/kg), plasma, read-out: Vdss): 5.4 ± 1.4 L/kg | bioavailability ([3]; mouse, plasma, po, mice, i.g. (3 mg/kg)): 91.3% | AUC(0-t) ([3]; mouse, po, mice, i.g. (3 mg/kg), plasma): 2740 ± 325 ng·h/mL | AUC(0-t) [2, 4]: 2850 ± 532 ng·h/mL | clearance [2, 4]: 5.95 ± 1.2 mL/min/kg | Vd [2, 4]: 0.825 ± 0.027 L/kg | bioavailability ([2]; rat, plasma, po, rats, i.g. (3 mg/kg)): ≥ 98% | AUC(0-t) [2, 5]: 12600 ± 1320 ng·h/mL | C0 or Cmax ([2]; rats, i.g. (3 mg/kg), plasma): 3060 ± 457 ng/mL | C0 or Cmax ([2]; rats, i.v. (1 mg/kg), plasma): 3233 ± 495 ng/mL
